According to US10385097B2, “Ether compounds for treatment of medical disorders” (Achillion Pharmaceuticals, Inc., priority 2015, dated 2019):
Like-named read-outs stand apart in the source and are kept apart here.

Biological target: T1, Human Factor D (Homo sapiens, UniProt P00746)
T1 construct: purified from human serum; purchased Complement Technology, Inc; host or cells: human serum (natural protein, not recombinant)
Test: Human Factor D Assay
Type: biochemical
Procedure: Example 8. Human Factor D Assay
Human Factor D (purified from human serum, Complement Technology, Inc.) at 80 nM final concentration is incubated with test compound at various concentrations for 5 minutes at room temperature in 50 mM Tris, 1M NaCl, pH 7.5. A synthetic substrate Z-L-Lys-SBzl and DTNB (Ellman's reagent) are added to final concentrations of 100 μM each. Absorbance at 405 nm (A405) is recorded at 30 second intervals for 30 minutes using a microplate spectrophotometer. IC50 values are calculated by nonlinear regression of complement Factor D reaction rates as a function of test compound concentration.

[1] = Table 1, Human Factor D 80 nM, substrate Z-L-Lys-SBzl, read-out: IC50

T1 sequence (P00746 26-253): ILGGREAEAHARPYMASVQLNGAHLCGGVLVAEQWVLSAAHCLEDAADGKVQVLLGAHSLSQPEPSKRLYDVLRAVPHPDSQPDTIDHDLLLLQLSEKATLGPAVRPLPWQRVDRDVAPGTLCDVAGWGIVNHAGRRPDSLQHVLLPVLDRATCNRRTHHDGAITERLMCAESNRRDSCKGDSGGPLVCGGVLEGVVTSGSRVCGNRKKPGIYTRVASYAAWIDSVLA

SMILES | IC50 [1] [nM] | further results
CC(=O)c1cn(CC(=O)N2C[C@H](F)C[C@H]2C(=O)Nc2cccc(Br)n2)c2ccc(OCC[S+]([O-])CC3(C)COC3)cc12 (stereo partly shown) [Cmp 4] |  | IC50 (Table 3, Human Factor D 80 nM, substrate Z-L-Lys-SBzl, read-out: (IC50 (Stars))): < 1000 nM
CC(=O)c1cn(CC(=O)N2C[C@H](F)C[C@H]2C(=O)Nc2cccc(OC(F)(F)F)c2F)c2cc(OCC3CC3)ccc12 [Cmp 4] | < 1000 | 
CC(=O)c1cn(CC(=O)N2C[C@H](F)C[C@H]2C(=O)NCc2cccc(Cl)c2F)c2cc(OCCC3CC3)ccc12 [Cmp 5] |  | IC50: < 1000 nM
CC(=O)c1cn(CC(=O)N2C[C@H](F)C[C@H]2C(=O)Nc2cccc(Br)n2)c2ccc(OCCSCC3(C)COC3)cc12 [Cmp 5] |  | IC50: < 1000 nM
CC(=O)c1cn(CC(=O)N2C[C@H](F)C[C@H]2C(=O)NCc2cccc(Cl)c2F)c2cc(OCC3CC3)ccc12 [Compound 1, (2S,4R)-1-(2-(3-acetyl-6-(cyclopropylmethoxy)-1H-indol-1-yl)acetyl)-N-(3-chloro-2-fluorobenzyl)-4-fluoropyrrolidine-2-carboxamide] | < 1000 | 
CC(=O)c1cn(CC(=O)N2C[C@H](F)C[C@H]2C(=O)NCc2cccc(Cl)c2F)c2cc(OS(=O)(=O)C(F)(F)F)ccc12 [Compound 2, 3-acetyl-1-(2-((2S,4R)-2-(3-chloro-2-fluorobenzylcarbamoyl)-4-fluoropyrrolidin-1-yl)-2-oxoethyl)-1H-indol-6-yl trifluoromethanesulfonate] | < 1000 | 
CC(=O)c1cn(CC(=O)N2[C@@H]3C[C@@H]3C[C@H]2C(=O)NCc2cccc(Cl)c2F)c2cc(OCC3CC3)ccc12 [Compound 3, (1R,3S,5R)-2-(2-(3-acetyl-6-(cyclopropylmethoxy)-1H-indol-1-yl)acetyl)-N-(3-chloro-2-fluorobenzyl)-2-azabicyclo[3.1.0]hexane-3-carboxamide] | < 1000 | 
CCOP(=O)(COc1ccc2c(C(C)=O)cn(CC(=O)N3C[C@H](F)C[C@H]3C(=O)NCc3cccc(Cl)c3F)c2c1)OCC [Compound 7, Diethyl(((3-acetyl-1-(2-((2S,4R)-2-((3-chloro-2-fluorobenzyl)carbamoyl)-4-fluoropyrrolidin-1-yl)-2-oxoethyl)-1H-indol-6-yl)oxy)methyl)phosphonate] | < 1000 | 
CC(=O)c1cn(CC(=O)N2C[C@H](F)C[C@H]2C(=O)NCc2cccc(Cl)c2F)c2cc(OCP(=O)(O)O)ccc12 [Compound 8, (((3-Acetyl-1-(2-((2S,4R)-2-((3-chloro-2-fluorobenzyl)carbamoyl)-4-fluoropyrrolidin-1-yl)-2-oxoethyl)-1H-indol-6-yl)oxy)methyl)phosphonic acid] | < 1000 | 
CC(=O)c1cn(CC(=O)N2C[C@H](F)C[C@H]2C(=O)NCc2cccc(Cl)c2F)c2ccc(OS(=O)(=O)C(F)(F)F)cc12 [Compound 9, 3-acetyl-1-(2-((2S,4R)-2-(3-chloro-2-fluorobenzylcarbamoyl)-4-fluoropyrrolidin-1-yl)-2-oxoethyl)-1H-indol-5-yl trifluoromethanesulfonate] | < 1000 | 
CCOP(=O)(COc1ccc2c(c1)c(C(C)=O)cn2CC(=O)N1C[C@H](F)C[C@H]1C(=O)NCc1cccc(Cl)c1F)OCC [Compound 10, Diethyl(((3-acetyl-1-(2-((2S,4R)-2-((3-chloro-2-fluorobenzyl)carbamoyl)-4-fluoropyrrolidin-1-yl)-2-oxoethyl)-1H-indol-5-yl)oxy)methyl)phosphonate] | < 1000 | 
CC(=O)c1cn(CC(=O)N2C[C@H](F)C[C@H]2C(=O)NCc2cccc(Cl)c2F)c2ccc(OCP(=O)(O)O)cc12 [Compound 11, (((3-acetyl-1-(2-((2S,4R)-2-((3-chloro-2-fluorobenzyl)carbamoyl)-4-fluoropyrrolidin-1-yl)-2-oxoethyl)-1H-indol-5-yl)oxy)methyl)phosphonic acid] | < 1000 | 
CC(=O)c1cn(CC(=O)N2C[C@H](F)C[C@H]2C(=O)NCc2cccc(Cl)c2F)c2cc(OCP(=O)(OCOC(=O)OC(C)C)OCOC(=O)OC(C)C)ccc12 [Compound 12, (((3-acetyl-1-(2-((2S,4R)-2-(3-chloro-2-fluorobenzylcarbamoyl)-4-fluoropyrrolidin-1-yl)-2-oxoethyl)-1H-indol-6-yloxy)methyl)phosphoryl)bis(oxy)bis(methylene) isopropyl dicarbonate] | < 1000 | 
